Data reported in patent US6802882B2, “Nitrification inhibitors, and the use of polyacids which contain a nitrification inhibitor for the treatment of inorganic fertilizers” (BASF Aktiengesellschaft, priority 1996, dated 2004).

What was measured:
[1] = Storage stability rapid test of treated inorganic fertilizers (loss of nitrification inhibitor); type: physicochemical; conditions: on ammonium sulfate nitrate carrier fertilizer; 4 weeks at 30° C., 40 to 50% relative atmospheric humidity, approx. 1.2 m/s air velocity
Protocol: The carrier fertilizer used was ammonium sulfate nitrate (ASN). 2 g of pyrazole were dissolved in a little water, and if desired (see Table I) the solution was mixed with a stoichiometric amount of phosphoric acid (1:1) and with from 1 to 10 g of polyacrylic acid or polyphosphoric acid. […] of the carrier fertilizer in the form of granules were prewarmed to approximately 50° C. and slowly sprayed onto a turntable with the mixture containing the pyrazole compound. To accelerate the drying, drying was carried out with hot air, either at the end of the spraying or after interruption of the spraying.
The storage stability of the treated inorganic fertilizers was determined in a rapid test in which the nitrification-inhibited inorganic fertilizers were stored in a ventilated warming cabinet for 4 weeks at 30° C., from 40 to 50% relative atmospheric humidity and approximately 1.2 m/s air velocity. The concentration of nitrification inhibitor on the inorganic fertilizer was determined before and after storage and the loss of nitrification inhibitor determined in percent. Approximately 10 to 30 g of treated inorganic fertilizer were stored in each case. The concentration of pyrazole compound as nitrification inhibitor in this case was from 0.05% by weight to 0.2% by weight at the start of the investigation, based on the treated inorganic fertilizer.

nitrification [2] = test: Field tests: NO3- and NH4-N-amounts in soil; type: in vivo; conditions: for Ø NH4-N amount in soil / Ø NO3-N amount in soil: n = 5, locations 1-5; for biological effectiveness (in words): field tests, results of table 1, reduced amounts of the active substance versus DCD
Protocol: The biological effectiveness of 4-chloro-3-methylpyrazole (4 Cl-3MP) and 3,4-dimethylpyrazole (3,4-DMP) in comparison with DCD and the control was tested in multiple field tests in different environments by means of the features “nitrate content in the basis of the stem”, “NO3— and NH4—N-content in the soil” as well as “grain produce”.
The standard methods used in agricultural tests were applied to the laying-out, probing, harvesting and evaluation of the field tests.
The analysis of the plant and soil samples followed standard procedures. The remaining measures undertaken in the production, e.g. plant protection, were in accordance with good agricultural practice and were applied uniformly.

rape plants = test: Field tests: NO3 amount in the basis of the stem of rape plants; type: in vivo; conditions: n = 5, locations 1-5
Protocol: (§1) The biological effectiveness of 4-chloro-3-methylpyrazole (4 Cl-3MP) and 3,4-dimethylpyrazole (3,4-DMP) in comparison with DCD and the control was tested in multiple field tests in different environments by means of the features “nitrate content in the basis of the stem”, “NO3— and NH4—N-content in the soil” as well as “grain produce”. The standard methods used in agricultural tests were applied to the laying-out, probing, harvesting and evaluation of the field tests. The analysis of the plant and soil samples followed standard procedures. The remaining measures undertaken in the production, e.g. plant protection, were in accordance with good agricultural practice and were applied uniformly. As a consequence of this treatment the nitrate consumption of the plants is reduced (compare NO3-content in the basis of the stem of rape plants, table 2) and the produce is enhanced (compare grain produce of winter wheat, tables 3a and 3b).

winter wheat = test: Field tests: grain produce of winter wheat; type: in vivo
Protocol: as §1

nitrification [3] = test: Nitrification inhibiting effect of different pyrazoles; set-up: concentration or dose not given beside the values

Row | Loss in percent (loss of nitrification inhibitor during storage) [1] [%] | SMILES | Ø NH4-N amount in soil (nitrification [2]; 2 weeks after application) [kg/ha] | Ø NO3-N amount in soil (nitrification [2]; 2 weeks after application) [kg/ha] | Ø NH4-N amount in soil (nitrification [2]; 4 weeks after application) [kg/ha] | Ø NO3-N amount in soil (nitrification [2]; 4 weeks after application) [kg/ha] | Ø NH4-N amount in soil (nitrification [2]; 6 weeks after application) [kg/ha] | Ø NO3-N amount in soil (nitrification [2]; 6 weeks after application) [kg/ha] | Ø NH4-N amount in soil (nitrification [2]; 8 weeks after application) [kg/ha] | Ø NO3-N amount in soil (nitrification [2]; 8 weeks after application) [kg/ha] | Ø NO3 amount in the basis of the stem of rape plants (rape plants; 2 weeks after application) [ppm] | Ø NO3 amount in the basis of the stem of rape plants (rape plants; 4 weeks after application) [ppm] | Ø NO3 amount in the basis of the stem of rape plants (rape plants; 6 weeks after application) [ppm] | Ø NO3 amount in the basis of the stem of rape plants (rape plants; 8 weeks after application) [ppm] | % inhibition per applied amount of ammonium (nitrification [3]; column head 1) [%] | % inhibition per applied amount of ammonium (nitrification [3]; column head 2) [%] | % inhibition per applied amount of ammonium (nitrification [3]; column head 4) [%] | % inhibition per applied amount of ammonium (nitrification [3]; column head 6) [%] | % inhibition per applied amount of ammonium (nitrification [3]; column head 8) [%] | further results
1 | 31 | Cc1cn[nH]c1C.O=P(O)(O)O [3,4-Dimethylpyrazole phosphate, 3,4-dimethylpyrazolium dihydrogen Phosphate] | – | – | – | – | – | – | – | – | – | – | – | – | – | – | – | – | – | –
2 | 100 | Cc1c[nH]nc1C [3,4-Dimethylpyrazole, 3,4-dimethylpyrazole] | 82 | 54 | 70 | 43 | 71 | 44 | 37 | 28 | 8105 | 6720 | 4899 | 4454 | 88 | 61 | 48 | 34 | 27 | biological effectiveness (in words) (nitrification [2]): as good as or better than that of DCD; grain produce of winter wheat (winter wheat; location 2 (lean clay)): 97.8 dt/ha
3 | 55 | Cc1cc[nH]n1.O=P(O)(O)O [3-Methylpyrazole phosphate, reference compound] | – | – | – | – | – | – | – | – | – | – | – | – | – | – | – | – | – | –
4 | 100 | Cc1cc[nH]n1 [3-Methylpyrazole, reference compound] | – | – | – | – | – | – | – | – | – | – | – | – | 90 | 58 | 45 | 27 | 22 | –
5 | 92 | Cc1[nH]ncc1Cl.O=P(O)(O)O [4-Chloro-3-methylpyrazole phosphate, 4-chloro-3-methylpyrazolium dihydrogen Phosphate] | – | – | – | – | – | – | – | – | – | – | – | – | 91 | 62 | 53 | 45 | 27 | –
6 | 100 | Cc1n[nH]cc1Cl [4-Chloro-3-methylpyrazole, 4-chloro-3-methylpyrazole] | 115 | 61 | 79 | 50 | 76 | 39 | 40 | 28 | 8112 | 6629 | 4774 | 4276 | 88 | 66 | 48 | 32 | 21 | biological effectiveness (in words) (nitrification [2]): as good as or better than that of DCD; grain produce of winter wheat (winter wheat; location 4 (loamy sand)): 56.0 dt/ha
7 | – | N#CN=C(N)N [DCD, reference compound] | 87 | 47 | 68 | 44 | 82 | 35 | 39 | 29 | 8036 | 7022 | 4728 | 4274 | – | – | – | – | – | grain produce of winter wheat (winter wheat; location 2 (lean clay)): 94.3 dt/ha; grain produce of winter wheat (winter wheat; location 4 (loamy sand)): 52.6 dt/ha
8 | – | Cc1nn(CO)cc1Cl [N-hydroxy-4Cl-3MP, N-hydroxymethyl-4-chloro-3-methylpyrazole] | – | – | – | – | – | – | – | – | – | – | – | – | 87 | 58 | 45 | 30 | 15 | –
9 | – | Cc1cn(CO)nc1C [N-hydroxyl-3,4-DMP, N-hydroxymethyl-3,4-dimethylpyrazole] | – | – | – | – | – | – | – | – | – | – | – | – | 85 | 54 | 40 | 31 | 10 | –
